The results in this text go back to ChEMBL document CHEMBL4680144, “N-thiadiazole-4-hydroxy-2-quinolone-3-carboxamides bearing heteroaromatic rings as novel antibacterial agents: Design, synthesis, biological evaluation and target identification” (Eur J Med Chem, 2020).

≈ marks a conversion by molar mass, not a printed value.

The test system of data set [1] is Staphylococcus aureus. Briefly: Antibacterial activity against wild type methicillin-sensitive Staphylococcus aureus ATCC 29213 assessed as inhibition of bacterial growth incubated for 18 to 24 hrs by broth microdilution method. The format is functional. The settings on record: time 18-24 hrs. Background: Dilution methods test growth across graded concentrations, often in twofold steps.

Data set [2] deals with Staphylococcus aureus. Description: Antibacterial activity against methicillin-resistant Staphylococcus aureus clinical isolate 15-1 assessed as inhibition of bacterial growth incubated for 18 to 24 hrs by broth microdilution method. It is filed as functional. The following applies: time 18-24 hrs.
Data set [3] concerns Staphylococcus aureus. Briefly: Antibacterial activity against methicillin-resistant Staphylococcus aureus clinical isolate 15-2 assessed as inhibition of bacterial growth incubated for 18 to 24 hrs by broth microdilution method. It is filed as functional. The settings on record: time 18-24 hrs.
Data set [4] has as its system Staphylococcus aureus. Briefly: Antibacterial activity against methicillin-resistant Staphylococcus aureus clinical isolate 15-3 assessed as inhibition of bacterial growth incubated for 18 to 24 hrs by broth microdilution method. It is filed as functional. The following applies: time 18-24 hrs.
Data set [5] deals with Staphylococcus aureus. Description: Antibacterial activity against methicillin-resistant Staphylococcus aureus clinical isolate 15-6 assessed as inhibition of bacterial growth incubated for 18 to 24 hrs by broth microdilution method. The format is functional. The settings on record: time 18-24 hrs.
In data set [6] the test system is Staphylococcus aureus. Description: Antibacterial activity against methicillin-resistant Staphylococcus aureus clinical isolate 15-7 assessed as inhibition of bacterial growth incubated for 18 to 24 hrs by broth microdilution method. It is filed as functional. The following applies: time 18-24 hrs.
For data set [7], the system named is Staphylococcus aureus. Briefly: Antibacterial activity against methicillin-resistant Staphylococcus aureus clinical isolate 15-8 assessed as inhibition of bacterial growth incubated for 18 to 24 hrs by broth microdilution method. The format is functional. The settings on record: time 18-24 hrs.
The test system of data set [8] is Staphylococcus aureus. Briefly: Antibacterial activity against methicillin-resistant Staphylococcus aureus clinical isolate 15-9 assessed as inhibition of bacterial growth incubated for 18 to 24 hrs by broth microdilution method. The format is functional. The settings on record: time 18-24 hrs.
Data set [9] deals with Staphylococcus aureus. Briefly: Antibacterial activity against methicillin resistant and vancomycin-intermediate sensitive Staphylococcus aureus ATCC 700699 assessed as inhibition of bacterial growth incubated for 18 to 24 hrs by broth microdilution method. It is filed as functional. The following applies: time 18-24 hrs.
The subject of data set [10] is Staphylococcus aureus. Description: Antibacterial activity against methicillin resistant and vancomycin-intermediate sensitive Staphylococcus aureus ATCC 700788 assessed as inhibition of bacterial growth incubated for 18 to 24 hrs by broth microdilution method. The format is functional. The following applies: time 18-24 hrs.
For data set [11], the system named is Staphylococcus epidermidis. Description: Antibacterial activity against methicillin-sensitive Staphylococcus epidermidis clinical isolate 15-3 assessed as inhibition of bacterial growth incubated for 18 to 24 hrs by broth microdilution method. It is filed as functional. The settings on record: time 18-24 hrs.
The test system of data set [12] is Staphylococcus epidermidis. Briefly: Antibacterial activity against methicillin-sensitive Staphylococcus epidermidis clinical isolate 15-4 assessed as inhibition of bacterial growth incubated for 18 to 24 hrs by broth microdilution method. The format is functional. The settings on record: time 18-24 hrs.
Data set [13] deals with Staphylococcus epidermidis. Description: Antibacterial activity against methicillin-resistant Staphylococcus epidermidis clinical isolate 15-1 assessed as inhibition of bacterial growth incubated for 18 to 24 hrs by broth microdilution method. The format is functional. The settings on record: time 18-24 hrs.
Data set [14] relates to Staphylococcus epidermidis. Description: Antibacterial activity against methicillin-resistant Staphylococcus epidermidis clinical isolate 15-2 assessed as inhibition of bacterial growth incubated for 18 to 24 hrs by broth microdilution method. The format is functional. The following applies: time 18-24 hrs.
The subject of data set [15] is Staphylococcus epidermidis. Briefly: Antibacterial activity against methicillin-resistant Staphylococcus epidermidis clinical isolate 15-3 assessed as inhibition of bacterial growth incubated for 18 to 24 hrs by broth microdilution method. The format is functional. The following applies: time 18-24 hrs.
The subject of data set [16] is Enterococcus faecalis. Description: Antibacterial activity against Enterococcus faecalis clinical isolate 15-1 assessed as inhibition of bacterial growth incubated for 18 to 24 hrs by broth microdilution method. The format is functional. The following applies: time 18-24 hrs.
The subject of data set [17] is Enterococcus faecalis. Briefly: Antibacterial activity against Enterococcus faecalis clinical isolate 15-2 assessed as inhibition of bacterial growth incubated for 18 to 24 hrs by broth microdilution method. The format is functional. The settings on record: time 18-24 hrs.
Data set [18] concerns Enterococcus faecium. Description: Antibacterial activity against Enterococcus faecium clinical isolate 15-1 assessed as inhibition of bacterial growth incubated for 18 to 24 hrs by broth microdilution method. It is filed as functional. The settings on record: time 18-24 hrs.
Data set [19] relates to Enterococcus faecium. Description: Antibacterial activity against Enterococcus faecium clinical isolate 15-2 assessed as inhibition of bacterial growth incubated for 18 to 24 hrs by broth microdilution method. It is filed as functional. The following applies: time 18-24 hrs.
For data set [20], the system named is Enterococcus faecalis. Description: Antibacterial activity against vancomycin-resistant Enterococcus faecalis ATCC 51299 assessed as inhibition of bacterial growth incubated for 18 to 24 hrs by broth microdilution method. It is filed as functional. The following applies: time 18-24 hrs.
In data set [21] the test system is Enterococcus faecalis. Description: Antibacterial activity against vancomycin-resistant Enterococcus faecalis ATCC 700802 assessed as inhibition of bacterial growth incubated for 18 to 24 hrs by broth microdilution method. It is filed as functional. The following applies: time 18-24 hrs.
For data set [22], the system named is Enterococcus faecalis. Description: Antibacterial activity against vancomycin-resistant Enterococcus faecalis ATCC 51575 assessed as inhibition of bacterial growth incubated for 18 to 24 hrs by broth microdilution method. It is filed as functional. The settings on record: time 18-24 hrs.
Data set [23] can be described thus: Inhibition of Staphylococcus aureus Gyrase B using linear pBR322 DNA as substrate incubated for 30 mins in presence of ATP by ADP-Glo assay. (ADP-Glo turns the ADP formed in a reaction into a luminescent signal.)
Data set [24] is described as follows: Selectivity index, ratio of TC50 for CHOK1 cells to MIC for Staphylococcus aureus ATCC 25923. The format is toxicity. The settings on record: hamster.

`CCc1nnc(NC(=O)c2c(O)c3ccccc3n(C)c2=O)s1`: the MIC in [1] is 1.56 µg/mL (≈ 4.72 µM); in data set [2], 2 µg/mL (≈ 6.05 µM); in [3], 4 µg/mL (≈ 12.1 µM); in data set [4], 2 µg/mL (≈ 6.05 µM); in [5] it was 4 µg/mL (≈ 12.1 µM); in data set [6] it was 4 µg/mL (≈ 12.1 µM). For the same molecule, the MIC came out at 4 µg/mL (≈ 12.1 µM) in data set [7]; 4 µg/mL (≈ 12.1 µM) in data set [8]; 4 µg/mL (≈ 12.1 µM) in data set [9]; 4 µg/mL (≈ 12.1 µM) in data set [10]; 4 µg/mL (≈ 12.1 µM) in [11]; 2 µg/mL (≈ 6.05 µM) in data set [12]. Further, the MIC in [13], in data set [14], in data set [15], in data set [16], in [17] and in data set [18] was 4 µg/mL (≈ 12.1 µM) each time. The MIC was 4 µg/mL (≈ 12.1 µM) in data set [19], 32 µg/mL (≈ 96.9 µM) in data set [20], 32 µg/mL (≈ 96.9 µM) in [21] and 32 µg/mL (≈ 96.9 µM) in data set [22]. Also, the IC50 in [23] amounted to 100 nM. Also, the selectivity ratio in data set [24] was 20.7.

What is called MIC is the least concentration at which growth counts as inhibited. The IC50 is the concentration that inhibits the measured activity by half.
